Test results reported in US12061201B2, “Fluorescent probes for the visualization of FtsZ in gram-positive and gram-negative bacterial pathogens” (Rutgers, The State University of New Jersey, priority 2019, dated 2024).

Assays:
Experiment in all cases: Fluorescence microscopy FtsZ visualization in live cells
Assay type in all cases: cell-based
[1] = biological target: T1, FtsZ in P. aeruginosa ATCC 27853 cells (Pseudomonas aeruginosa, UniProt P47204); details: 1 μg/mL BOFP for 5 minutes, no pentamidine
T1 construct: endogenous in cells; host or cells: P. aeruginosa ATCC 27853
T1 sequence (P47204 1-394): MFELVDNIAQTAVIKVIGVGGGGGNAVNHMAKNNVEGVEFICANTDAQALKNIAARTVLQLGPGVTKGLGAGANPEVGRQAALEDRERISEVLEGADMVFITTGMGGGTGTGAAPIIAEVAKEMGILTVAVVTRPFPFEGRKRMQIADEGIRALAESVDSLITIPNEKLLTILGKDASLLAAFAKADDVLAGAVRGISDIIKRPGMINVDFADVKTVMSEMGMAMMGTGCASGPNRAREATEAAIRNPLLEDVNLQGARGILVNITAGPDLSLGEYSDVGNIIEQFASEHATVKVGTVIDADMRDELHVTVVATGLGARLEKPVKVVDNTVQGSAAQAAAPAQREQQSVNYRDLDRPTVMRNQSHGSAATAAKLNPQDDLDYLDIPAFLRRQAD
Protocol: (§1) Fluorescence microscopy assay for visualizing FtsZ and monitoring cell division in live Gram-positive and Gram-negative bacterial cells using BOFP. All fluorescence microscopy experiments were conducted using an Olympus BX50 microscope equipped with an X-cite Exacte 200W mercury lamp, a 100× Olympus UPLSAPO oil immersion objective (1.40 aperture), and a Chroma ET-EGFP (FITC/Cy2) filter. Images were captured using a QImaging Retiga R3 charge-coupled device (CCD) camera and the Ocular-Version 2.0 software package (QImaging).
(§2) For visualizing FtsZ in Gram-negative bacteria using BOFP, E. coli ATCC 25922, K. pneumoniae ATCC 13883, P. aeruginosa ATCC 27853, and A. baumannii ATCC 19606 were grown to log-phase in CAMH broth. For each Gram-negative bacterial strain, a total of 1 mL of cell culture was centrifuged at 15,000×g for 1 minute and washed twice with 1 mL of Tris-buffered saline (TBS) composed of 50 mM Tris-HCl pH 7.6 and 150 mM NaCl. […] The resuspended cells were then incubated in the dark for 5 minutes at room temperature, centrifuged at 15,000×g for 1 minute, washed twice with 1 mL of TBS, and subsequently resuspended in 200 μL of TBS. This final cell suspension was then prepared for microscopy as described above for the Gram-positive bacterial strains.

[2] = system: FtsZ in A. baumannii ATCC 19606 cells; details: 1 μg/mL BOFP for 5 minutes, no pentamidine
Protocol: as §1, §2

[3] = biological target: T2, FtsZ in E. coli ATCC 25922 cells (Escherichia coli, UniProt P0A9A6); details: 1 μg/mL BOFP for 5 minutes, no pentamidine
T2 construct: endogenous in cells; host or cells: E. coli ATCC 25922
Protocol: as §1, §2

[4] = system: FtsZ in K. pneumoniae ATCC 13883 cells
Protocol: as §1, §2

[5] = biological target: T3, FtsZ in S. aureus NRS705 cells (Staphylococcus aureus, UniProt P0A031); details: 1 μg/mL (1.3 μM) BOFP, 5 minutes
T3 construct: endogenous in cells; host or cells: S. aureus NRS705
T3 sequence (P0A031 1-390): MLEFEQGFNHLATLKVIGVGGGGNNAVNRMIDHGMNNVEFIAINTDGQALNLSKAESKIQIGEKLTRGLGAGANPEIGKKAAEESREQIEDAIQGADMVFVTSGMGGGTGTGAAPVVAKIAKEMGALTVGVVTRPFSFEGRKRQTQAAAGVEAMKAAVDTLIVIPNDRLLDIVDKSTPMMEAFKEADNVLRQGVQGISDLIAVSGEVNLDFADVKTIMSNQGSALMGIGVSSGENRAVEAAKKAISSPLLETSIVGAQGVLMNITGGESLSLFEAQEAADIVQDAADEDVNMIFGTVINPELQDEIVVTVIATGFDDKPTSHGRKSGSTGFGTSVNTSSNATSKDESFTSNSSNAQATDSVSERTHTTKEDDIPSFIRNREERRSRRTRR
Protocol: as §1
(§3) For visualizing FtsZ in Gram-positive bacteria using BOFP, the bacterial cells were grown to log-phase in media suitable for each individual pathogen. Specifically, S. aureus NRS705 was grown in tryptic soy broth (TSB), E. faecalis ATCC 29212 and E. faecium ATCC 19434 were grown in lactobacilli MRS broth, S. agalactiae ATCC 12386 and S. pneumoniae ATCC 49619 were grown in TH broth, and S. pyogenes ATCC 19615 was grown in CAMH broth supplemented with 3% (v/v) LHB. For each Gram-positive bacterial strain, a total of 1 mL of cell culture was centrifuged at 15,000×g for 1 minute and washed 2-3 times with 1 mL of PBS. After the final wash, the pelleted cells were resuspended in 500 μL of PBS containing 1 μg/mL of BOFP and incubated in the dark for 5 minutes at room temperature. The cells were then centrifuged at 15,000×g for 1 minute, washed twice with 1 mL of PBS, and subsequently resuspended in 200 μL of PBS. 8 μL of this final cell suspension was then spread on a 0.25 mm layer of 1.5% high-resolution agarose (Sigma) in PBS, which was mounted on a standard 75×25×1 mm microscope slide (Azer Scientific) using a 1.7×2.8×0.025 cm Gene Frame (ThermoFisher). A 24×40 mm cover slip (Azer Scientific) was then applied to the agarose pad to prepare the slide for microscopic visualization.

[6] = system: FtsZ in S. pneumoniae ATCC 49619 cells; details: 1 μg/mL (1.3 μM) BOFP, 5 minutes
Protocol: as §1, §3

[7] = system: FtsZ in S. agalactiae ATCC 12386 cells; details: 1 μg/mL (1.3 μM) BOFP, 5 minutes
Protocol: as §1, §3

[8] = biological target: T4, FtsZ in E. faecalis ATCC 29212 cells (Enterococcus faecalis, UniProt O08439); details: 1 μg/mL (1.3 μM) BOFP, 5 minutes
T4 construct: endogenous in cells; host or cells: E. faecalis ATCC 29212
Protocol: as §1, §3

[9] = system: FtsZ in E. faecium ATCC 19434 cells; details: 1 μg/mL (1.3 μM) BOFP, 5 minutes
Protocol: as §1, §3

[10] = system: FtsZ in S. pyogenes ATCC 19615 cells; details: 1 μg/mL (1.3 μM) BOFP, 5 minutes
Protocol: as §1, §3

T2 sequence (P0A9A6 whole entry): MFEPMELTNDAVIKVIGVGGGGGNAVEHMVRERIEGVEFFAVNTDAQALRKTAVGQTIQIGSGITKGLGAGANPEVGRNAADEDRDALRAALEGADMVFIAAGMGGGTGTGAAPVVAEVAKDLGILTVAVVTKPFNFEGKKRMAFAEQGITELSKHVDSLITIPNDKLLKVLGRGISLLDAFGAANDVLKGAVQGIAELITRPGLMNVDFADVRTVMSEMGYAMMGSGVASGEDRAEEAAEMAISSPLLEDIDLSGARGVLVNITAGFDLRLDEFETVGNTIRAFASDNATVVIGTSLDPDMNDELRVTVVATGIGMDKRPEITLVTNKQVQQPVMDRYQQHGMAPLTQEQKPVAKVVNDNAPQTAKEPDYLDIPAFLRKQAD
T4 sequence (O08439 whole entry): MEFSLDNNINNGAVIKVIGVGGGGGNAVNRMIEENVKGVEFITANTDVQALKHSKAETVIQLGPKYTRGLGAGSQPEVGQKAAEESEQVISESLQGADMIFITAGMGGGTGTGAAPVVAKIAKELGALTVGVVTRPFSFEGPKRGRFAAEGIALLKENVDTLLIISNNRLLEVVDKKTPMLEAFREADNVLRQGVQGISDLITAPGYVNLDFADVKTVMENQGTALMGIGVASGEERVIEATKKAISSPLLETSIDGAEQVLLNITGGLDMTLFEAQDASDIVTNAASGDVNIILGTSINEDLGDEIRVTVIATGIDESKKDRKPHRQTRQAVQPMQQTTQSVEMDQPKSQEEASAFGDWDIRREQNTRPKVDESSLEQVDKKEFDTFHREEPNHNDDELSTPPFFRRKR

Structure (SMILES): CC1=CC(C)=[N+]2C1=Cc1ccc(CCC(=O)OCC(Oc3ccc(F)c(C(N)=O)c3F)c3nc(-c4ccc(C(F)(F)F)cc4)c(Br)o3)n1[B-]2(F)F (centres unmarked) [BOFP, 2-(5-bromo-4-(4-(trifluoromethyl)phenyl)-oxazol-2-yl)-2-(3-carbamoyl-2,4-difluorophenoxy)ethyl 3-(5,5-difluoro-7,9-dimethyl-5H-5λ^4,6λ^4-dipyrrolo[1,2-c:2′,1′-f][1,3,2]diazaborinin-3-yl)propanoate]
- FtsZ labeling in live cells without pentamidine [1]: little or no FtsZ labeling
- FtsZ labeling in live cells without pentamidine [2]: little or no FtsZ labeling
- FtsZ labeling in live cells without pentamidine [3]: little or no FtsZ labeling
- FtsZ labeling in live cells without pentamidine ([4]; 1 μg/mL BOFP for 5 minutes, no pentamidine): little or no FtsZ labeling
- FtsZ labeling (fluorescence staining) in live cells ([4]; 1 μg/mL BOFP with 3.5 mg/mL pentamidine isethionate, 5 minutes): bright fluorescence staining is visible both at midcell and along the cell periphery
- FtsZ labeling (fluorescence staining) in live cells [5]: bright bands of fluorescence staining were clearly visible at midcell
- FtsZ labeling (fluorescence staining) in live cells [6]: bright bands of fluorescence staining were clearly visible at midcell
- FtsZ labeling (fluorescence staining) in live cells [7]: bright bands of fluorescence staining were clearly visible at midcell
- FtsZ labeling (fluorescence staining) in live cells [8]: bright bands of fluorescence staining were clearly visible at midcell
- FtsZ labeling (fluorescence staining) in live cells [9]: bright bands of fluorescence staining were clearly visible at midcell
- FtsZ labeling (fluorescence staining) in live cells [10]: bright bands of fluorescence staining were clearly visible at midcell
